Experimental findings from ChEMBL document CHEMBL4251625, “Efficacy of 2-hydroxy-3-phenylsulfanylmethyl-[1,4]-naphthoquinone derivatives against different Trypanosoma cruzi discrete type units: Identification of a promising hit compound” (Eur J Med Chem, 2018) are described below.

Series [1] has as its system Trypanosoma cruzi. The series can be described thus: Trypanocidal activity against Trypanosoma cruzi Brazil trypomastigotes infected in monkey LLC-MK2 cells after 24 hrs by luminescent assay. It counts as functional, organism-based.
Series [2] is described as follows: Cytotoxicity activity against African green monkey Vero cells assessed as reduction in cell viability after 72 hrs by cell-titer-glo assay. It counts as cell-based. The following applies: chlorocebus sabaeus.
For series [3], the system named is Trypanosoma cruzi. The series can be described thus: Trypanocidal activity against Trypanosoma cruzi CL trypomastigotes infected in monkey LLC-MK2 cells after 24 hrs by luminescent assay. The following applies: CL Brener. In kind it is functional, organism-based.
The nature of series [4]: Cytotoxicity against Swiss Webster mouse cardiomyocytes after 72 hrs. Also noted: species or system Cardiac Muscle Cell.
The nature of series [5]: Therapeutic index, ratio of CC50 for Swiss Webster mouse cardiomyocytes to IC50 for Trypanosoma cruzi Y intracellular amastigotes infected in Swiss Webster mouse cardiomyocytes. In kind it is toxicity, cell-based. The following applies: read-out: Ratio CC50/IC50.
Series [6] concerns Trypanosoma cruzi. The series can be described thus: Trypanocidal activity against Trypanosoma cruzi Y trypomastigotes infected in monkey LLC-MK2 cells after 24 hrs by cell-titer-glo assay. It counts as functional, organism-based. Particulars: for IC50: LLC-MK2, 24 h; for IC90: LLC-MK2, in Primates, 24 h.
Series [7] has as its system Trypanosoma cruzi. The series can be described thus: Trypanocidal activity against infected Swiss Webster mouse derived bloodstream form of Trypanosoma cruzi Y after 24 hrs by cell-titer-glo assay. In kind it is functional, organism-based.
A short description of series [8]: Therapeutic index, ratio of CC50 for African green monkey Vero cells to IC50 for infected Swiss Webster mouse derived bloodstream form of Trypanosoma cruzi Y. Particulars: read-out: Ratio CC50/IC50. It counts as toxicity.
Series [9] relates to Trypanosoma cruzi. Put plainly: Trypanocidal activity against Trypanosoma cruzi Dm28c trypomastigotes infected in monkey LLC-MK2 cells after 24 hrs by luminescent assay. It counts as functional, organism-based.
Series [10] in a line: Cytotoxicity activity against Swiss Webster mouse primary hepatocytes assessed as reduction in cell viability after 72 hrs by cell-titer-glo assay. It counts as cell-based, Hepatocyte.
The nature of series [11]: Therapeutic index, ratio of CC50 for African green monkey Vero cells to IC50 for Trypanosoma cruzi Dm28c intracellular amastigotes infected in African green monkey Vero cells. It counts as toxicity, cell-based. Particulars: read-out: Ratio CC50/IC50.
In series [12] the test system is Trypanosoma cruzi. Put plainly: Trypanocidal activity against Trypanosoma cruzi Dm28c intracellular amastigotes infected in African green monkey Vero cells after 72 hrs. It counts as functional, organism-based.
A short description of series [13]: Therapeutic index, ratio of CC50 for African green monkey Vero cells to IC50 for Trypanosoma cruzi Y trypomastigotes infected in monkey LLC-MK2 cells. In kind it is toxicity, cell-based. The following applies: read-out: Ratio CC50/IC50.
The test system of series [14] is Trypanosoma cruzi. Put plainly: Trypanocidal activity against Trypanosoma cruzi Y intracellular amastigotes infected in Swiss Webster mouse cardiomyocytes after 72 hrs. It counts as functional, organism-based.

In general, IC50 refers to the concentration that inhibits the measured activity by half. As a reminder, the IC90 is the concentration at which the effect reaches the 90% level. What is called CC50 is the concentration at which the toxic effect on the cells reaches its halfway point.

`O=C(Cn1ccnc1[N+](=O)[O-])NCc1ccccc1` [BENZNIDAZOLE]: the IC50 turned out to be 93.3 µM in the series on Trypanosoma cruzi [1] (LLC-MK2, 24 h); 69.3 µM in the series with Trypanosoma cruzi [3] (LLC-MK2, 24 h); 29.8 µM with Trypanosoma cruzi [6]; 18.1 µM in the series with Trypanosoma cruzi [7]; 24.7 µM in the series with Trypanosoma cruzi [9] (LLC-MK2, 24 h); 4.39 µM with Trypanosoma cruzi [12]. This molecule returned an IC50 with Trypanosoma cruzi [14] of 1.1 µM. For the same molecule, the IC90 in the series on Trypanosoma cruzi [1] (LLC-MK2, in Primates, 24 h) is greater than 100 µM; in the series with Trypanosoma cruzi [3] (LLC-MK2, in Primates, 24 h), greater than 100 µM; with Trypanosoma cruzi [6], 68.5 µM; with Trypanosoma cruzi [7], greater than 100 µM; in the series with Trypanosoma cruzi [9] (LLC-MK2, in Primates, 24 h), 92.3 µM; in the series with Trypanosoma cruzi [12], 24.9 µM. The 50% cytotoxic concentration (CC50) at 72 h in series [2] is 366 µM; in series [4], greater than 500 µM; in [10] it was greater than 500 µM. In addition, the selectivity ratio in series [5] was greater than 455; in series [8], 20.2; in [11], 83.2; in series [13] it was 12.2.

With `O=C1C=C(O)C(=O)c2ccccc21` [LAWSONE], the CC50 at 72 h is 214 µM in series [2] and greater than 500 µM in [10]. Besides, the values for the IC50 in the series on Trypanosoma cruzi [6], in the series with Trypanosoma cruzi [7] and in the series with Trypanosoma cruzi [12] were greater than 100 µM, greater than 100 µM and 89 µM, respectively. In addition, the IC90 in the series with Trypanosoma cruzi [6], in the series on Trypanosoma cruzi [7] and in the series on Trypanosoma cruzi [12] was greater than 100 µM in each case. Besides, the selectivity ratio in series [11] was determined as 2.39.
